Measurements as given in US6911221B2, “Anti-neoplastic drug” (priority 2001, dated 2005).

Experiments:
MADB106 tumor cells = assay: Pulmonary metastasis count after tail vein injection of MADB106 tumor cells, with or without β-receptor agonist MP; format: in vivo, Fischer rats; details: for effect of β-receptor agonist on number of MADB106 metastases (in words): MP injected at tumor cell inoculation
Procedure: 3. The experimental animals were divided into a test group and a control group. The animals in the test group were fed with 0.1, 0.5, 2 g/kg body weight ACNO mixed and standard powdered rodent food to which water was added (test food), every day. The animals in the control group received the same wet food mixture without ACNO (control food) in the same amount. All animals were fed at regular times every day. To adjust animals to the feeding protocol, all rats received the wet mixture without ACNO for 3 days before each experiment. Thereafter, the animals were fed test food and control food, respectively. Rats from all groups consumed more than 95% of the food each day. Approximately 70% of it was consumed during the dark phase. Body weight of each animal was monitored twice a week during the experiment. 4. MADB106 tumor cell—MADB106 cell was obtained from a pulmonary metastasis of a mammary adenocarcinoma (MADB100) by a special incubation. 5. Induction and counting of tumor metastasis—Rats were lightly anesthetized with halothane, and then 10^5 MADB106 tumor cells were injected into their tail vein. […] Rats were anesthetized with halothane after they were fed with ACNO for 3 weeks counted from the day of tumor inoculation, and their lungs were removed and placed in Bouin solution (72% saturated picric acid solution, 23% formaldehyde [37% solution] and 5% glacial acetic acid) for 24 h. Thereafter, the lungs were washed with ethanol, and then the cell number of pulmonary metastasis were counted by two experimenters unaware of the group origin (in a blind technique), independently. The obtained data were analyzed statistically. […] healthy […] Fischer rats that were 7-8 weeks old and of 120-170 g body weight (48 females and 61 males), were randomly divided into 2 groups, an experiment group and a control group. […] Thereafter, the lungs were washed with ethanol, and then the cell number of pulmonary metastasis were counted by two experimenters unaware of the group origin (in a blind technique), independently. The obtained data were analyzed statistically.

B16 melanoma = details: subcutaneous transplantation; cited from earlier work
NK and IL-2 activity = details: oral; lung cancer implanted mice and normal mice; cited from earlier work
LEWIS lung cancer = details: subcutaneous transplantation; cited from earlier work
S180 sarcoma = details: subcutaneous transplantation; cited from earlier work

| Compound | effect of β-receptor agonist on number of MADB106 metastases (in words) (MADB106 tumor cells) | effect of β-receptor agonist on number of MADB106 metastases (in words) (MADB106 tumor cells; listed as Metaproterenol) | cell number of MADB106 metastases (MADB106 tumor cells; control food plus MP injection, NS controls 70+14) | inhibition rate (B16 melanoma) | IL-2 activity (NK and IL-2 activity) | NK activity (NK and IL-2 activity) | inhibition rate (LEWIS lung cancer) | inhibition rate (S180 sarcoma) |
| --- | --- | --- | --- | --- | --- | --- | --- | --- |
| CC(C)NCC(O)c1cc(O)cc(O)c1 (centres unmarked) [MP, Metaproterenol] | significantly increased the cells number of metastases | significantly increased the number of metastases | 255+32 | – | – | – | – | – |
| CC(C)=CCC[C@](C)(O)[C@H]1CC[C@]2(C)[C@@H]1[C@H](O)C[C@@H]1[C@@]3(C)CC[C@H](O[C@@H]4O[C@H](CO)[C@@H](O)[C@H](O)[C@H]4O[C@@H]4O[C@H](CO)[C@@H](O)[C@H](O)[C@H]4O)C(C)(C)[C@@H]3CC[C@]12C [Rg3, ginsenoside Rg3] | – | – | – | 50-60% | remarkably enhance | remarkably enhance | 50-60% | 50-60% |
